A word on the melting point: it is the temperature, or range, at which the solid turns liquid.

Data set [1] deals with PDE4. Nature of the data set: Inhibition of PDE4 activity (method of Bauer and Schwabe, microtitre plates). Type of data set: biochemical. Particulars: measured as −logIC50 (mol/l). As to the method: The activity test was carried out according to the method of Bauer and Schwabe, which was adapted to microtitre plates (Naunyn-Schmiederberg's Arch. Pharmacol. 311, 193-198, 1980). In this test, the PDE reaction is carried out in the first step. In a second step, the resultant 5′-nucleotide is cleaved to the uncharged nucleoside by a snake venom 5′-nucleotidase from Crotalus Atrox. In the third step, the necleoside is separated from the remaining charged substrate on ion exchange columns. The columns are eluted directly into minivials using 2 ml of 30 mM ammonium formate (pH 6.0), to which a further 2 ml of scintillation fluid is added for counting.
The inhibitory values determined for the compounds according to the invention follow from the following table A which the numbers of the compounds correspond to the numbers of the examples.

The structures appear in SMILES notation.

For the compound `COc1ccc(C2=NN(C3CCS(=O)(=O)CC3)C(=O)C3CC=CCC23)cc1OC` [compound 9, (4aS,8aR)-(cis)-4-(3,4-Dimethoxyphenyl)-2-(1,1-dioxohexahydro-1l^6-thiopyran-4-yl)-4a,5,8,8a-tetrahydro-2H-phthalazin-1-one], the melting point was 203 to 204 °C. In data set [1], the “Inhibition of PDE4 activity, −logIC50” value came to 9.20 mol/l. As to `CCOc1ccc(C2=NN(C3CCS(=O)(=O)CC3)C(=O)C3CC=CCC23)cc1OCC` (stereo not drawn) [compound 6, (cis)-4-(3,4-Diethoxyphenyl)-2-(1,1-dioxohexahydro-1l^6-thiopyran-4-yl)-4a,5,8,8a-tetrahydro-2H-phthalazin-1-one], the “Inhibition of PDE4 activity, −logIC50” value in data set [1] was found to be 8.02 mol/l.

`COc1ccc(C2=NN(C3CCSCC3)C(=O)[C@H]3CC=CC[C@@H]23)cc1Cl` (relative stereo) [compound 4, (cis)-4-(3-Chloro-4-methoxyphenyl)-2-(tetrahydrothiopyran-4-yl)-4a,5,8,8a-tetrahydro-2H-phthalazin-1-one]: the melting point is 170 to 171 °C. `COc1ccc(C2=NN(C3CCS(=O)(=O)CC3)C(=O)C3CC=CCC23)c2c1OC(C)(C)C2` (stereo not drawn) [compound 7, (cis)-4-(2,3-Dihydro-2,2-dimethyl-7-methoxybenzofuran-4-yl)-2-(1,1-dioxohexahydro-1l^6-thiopyran4-yl)-4a,5,8,8a-tetrahydro-2H-phthalazin-1-one] gave a melting point of 261 to 263 °C. Further, the “Inhibition of PDE4 activity, −logIC50” value in data set [1] is 9.00 mol/l.

As to `COc1ccc(C2=NN(C3CCS(=O)(=O)CC3)C(=O)C3CC=CCC23)cc1OC1CCCC1` (stereo not drawn) [compound 10, (cis)-4-(3-Cyclopentyloxy-4-methoxyphenyl)-2-(1,1,-dioxohexahydro-1l^6-thiopyran-4-yl)-4a,5,8,8a-tetrahydro-2H-phthalazin-1-one], the “Inhibition of PDE4 activity, −logIC50” value in data set [1] turned out to be 9.43 mol/l. Consider `COc1ccc(C2=NN(C3CCS(=O)(=O)CC3)C(=O)C3CC=CCC23)cc1OC` (stereo not drawn) [compound 2, (cis)-4-(3,4-Dimethoxyphenyl)-2-(1,1-dioxohexahydro-1l^6-thiopyran-4-yl)-4a,5,8,8a-tetrahydro-2H-phthalazin-1-one], for which the melting point fell in the range of 196 to 198 °C. The “Inhibition of PDE4 activity, −logIC50” value in data set [1] worked out at 8.45 mol/l. For `COc1ccc(C2=NN(C3CCSCC3)C(=O)[C@H]3CC=CC[C@@H]23)c2c1OC(C)(C)C2` (relative stereo) [compound 1, (cis)-4-(2,3-Dihydro-2,2-dimethyl-7-methoxybenzofuran-4-yl)-2-(tetrahydrothiopyran-4-yl)-4a,5,8,8a-tetrahydro-2H-phthalazin-1-one], in that order: 163 to 164 °C and 9.34 mol/l. `COc1ccc(C2=NN(C3CC[S+]([O-])CC3)C(=O)C3CC=CCC23)cc1OC` (stereo not drawn) [compound 3, (cis)-4-(3,4-Dimethoxyphenyl)-2-(1-oxo-hexahydro-1l^4-thiopyran-4-yl)-4a,5,8,8a-tetrahydro-2H-phthalazin-1-one]: the “Inhibition of PDE4 activity, −logIC50” value in data set [1] worked out at 8.51 mol/l. `COc1ccc(C2=NN(C3CC[S+]([O-])CC3)C(=O)C3CC=CCC23)cc1Cl` (stereo not drawn) [compound 5, (cis)-4-(3-Chloro4-methoxyphenyl)-2-(1-oxo-hexahydro-1l^4-thiopyran-4-yl)-4a,5,8,8a-tetrahydro-2H-phthalazin-1-one] yielded a melting point of 197 to 199 °C. For the same compound, the “Inhibition of PDE4 activity, −logIC50” value in data set [1] came out at 8.20 mol/l.
